Tests used:
[1] = system: ryegrass; test: Test C preemergence/postemergence greenhouse plant response rating 0 to 100; type: in vivo, Lolium multiflorum; conditions: POSTEMERGENCE
Summary of the method: (§1)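 Compounds in non-phytotoxic solvent applied preemergence to sandy loam one day after planting, postemergence at the 1–4 leaf stage, or to ~2.5 cm floodwater over silt loam.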

[2] = system: morningglory; test: Test B preemergence/postemergence greenhouse plant response rating 0 to 10; type: in vivo, Ipomoea hederacea; conditions: 0 to 10 scale
Summary of the method: (§2)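 Postemergence treatment of plants two to eighteen cm tall ran alongside preemergence treatment of planted seed, each using compound in a non-phytotoxic solvent.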

[3] = system: velvetleaf; test: as above; type: in vivo, Abutilon theophrasti; conditions: 0 to 10 scale
Summary of the method: as §2

[4] = system: soybean; test: Test C preemergence/postemergence greenhouse plant response rating 0 to 100; type: in vivo, Glycine max; conditions: POSTEMERGENCE; for Plant response rating, Soybean: 0 to 100 scale
Summary of the method: as §1

[5] = system: barley; test: as above; type: in vivo, Hordeum vulgare; conditions: POSTEMERGENCE; for Plant response rating Barley Igri: 0 to 100 scale
Summary of the method: as §1

[6] = system: wild buckwheat; test: Test B preemergence/postemergence greenhouse plant response rating 0 to 10; type: in vivo, Polygonum convolvulus; conditions: 0 to 10 scale
Summary of the method: as §2

[7] = system: sorghum; test: as above; type: in vivo, Sorghum bicolor; conditions: 0 to 10 scale
Summary of the method: as §2

[8] = system: blackgrass; test: Test C preemergence/postemergence greenhouse plant response rating 0 to 100; type: in vivo, Alopecurus myosuroides; conditions: POSTEMERGENCE; for Plant response rating, Blackgrass: 0 to 100 scale
Summary of the method: as §1

[9] = system: chickweed; test: as above; type: in vivo, Stellaria media; conditions: POSTEMERGENCE; for Plant response rating, Chickweed: 0 to 100 scale
Summary of the method: as §1

[10] = system: barley; test: Test B preemergence/postemergence greenhouse plant response rating 0 to 10; type: in vivo, Hordeum vulgare; conditions: 0 to 10 scale
Summary of the method: as §2

[11] = system: soybean; test: as above; type: in vivo, Glycine max; conditions: 0 to 10 scale
Summary of the method: as §2

[12] = system: sugar beet; test: as above; type: in vivo, Beta vulgaris; conditions: 0 to 10 scale
Summary of the method: as §2

[13] = system: pigweed; test: Test C preemergence/postemergence greenhouse plant response rating 0 to 100; type: in vivo, Amaranthusretroflexus; conditions: POSTEMERGENCE; for Plant response rating Pigweed: 0 to 100 scale
Summary of the method: as §1

[14] = system: rape; test: as above; type: in vivo, Brassica napus; conditions: POSTEMERGENCE; for Plant response rating, Rape: 0 to 100 scale
Summary of the method: as §1

[15] = system: bedstraw; test: Test B preemergence/postemergence greenhouse plant response rating 0 to 10; type: in vivo, Galium aparine; conditions: 0 to 10 scale
Summary of the method: as §2

[16] = system: cocklebur; test: as above; type: in vivo, Xanthium pensylvanicum; conditions: 0 to 10 scale
Summary of the method: as §2

[17] = system: chickweed; test: as above; type: in vivo, Stellaria media; conditions: 0 to 10 scale
Summary of the method: as §2

[18] = system: umbrella sedge; test: Test C flood test plant response rating 0 to 100; type: in vivo, Cyperus difformis; conditions: for Plant response rating (0 to 100), Umbrella sedge: under POSTEMERGENCE head (flood test species); for Plant response rating Umbrella sedge: flood test species listed under POSTEMERGENCE, 0 to 100 scale
Summary of the method: as §1

Compound: CC(C)OC(=O)COc1cc(-c2nn3c(c2Cl)CCCC3)c(F)cc1Cl [Compound 39]
- Plant response rating Ryegrass ([1]; 125 g/ha, 0 to 100 scale): 20
- Plant response rating (0 to 100), Ryegrass ([1]; Rate 16 g/ha): 10
- Plant response rating (0 to 100), Ryegrass ([1]; Rate 31 g/ha): 10
- Plant response rating, Morningglory ([2]; POSTEMERGENCE, Rate 50 g/ha): 8
- Plant response rating, Morningglory ([2]; PREEMERGENCE, Rate 50 g/ha): 0
- Plant response rating, Morningglory ([2]; Rate 200 g/ha, POSTEMERGENCE): 9
- Plant response rating, Morningglory ([2]; Rate 200 g/ha, PREEMERGENCE): 2
- Plant response rating, Velvetleaf ([3]; POSTEMERGENCE, Rate 50 g/ha): 9
- Plant response rating, Velvetleaf ([3]; PREEMERGENCE, Rate 50 g/ha): 2
- Plant response rating, Velvetleaf ([3]; Rate 200 g/ha, POSTEMERGENCE): 10
- Plant response rating, Velvetleaf ([3]; Rate 200 g/ha, PREEMERGENCE): 4
- Plant response rating, Soybean ([4]; 62 g/ha): 60
- Plant response rating, Soybean ([4]; 125 g/ha): 70
- Plant response rating (0 to 100), Soybean ([4]; Rate 16 g/ha): 30
- Plant response rating (0 to 100), Soybean ([4]; Rate 31 g/ha): 50
- Plant response rating Barley Igri ([5]; 62 g/ha): 30
- Plant response rating Barley Igri ([5]; 125 g/ha): 40
- Plant response rating (0 to 100), Barley Igri ([5]; Rate 16 g/ha): 20
- Plant response rating (0 to 100), Barley Igri ([5]; Rate 31 g/ha): 30
- Plant response rating, Wild buckwheat ([6]; POSTEMERGENCE, Rate 50 g/ha): 10
- Plant response rating, Wild buckwheat ([6]; PREEMERGENCE, Rate 50 g/ha): 10
- Plant response rating, Wild buckwheat ([6]; Rate 200 g/ha, POSTEMERGENCE): 10
- Plant response rating, Wild buckwheat ([6]; Rate 200 g/ha, PREEMERGENCE): 10
- Plant response rating, Sorghum ([7]; POSTEMERGENCE, Rate 50 g/ha): 5
- Plant response rating, Sorghum ([7]; PREEMERGENCE, Rate 50 g/ha): 0
- Plant response rating, Sorghum ([7]; Rate 200 g/ha, POSTEMERGENCE): 5
- Plant response rating, Sorghum ([7]; Rate 200 g/ha, PREEMERGENCE): 0
- Plant response rating, Blackgrass ([8]; 62 g/ha): 30
- Plant response rating, Blackgrass ([8]; 125 g/ha): 40
- Plant response rating (0 to 100), Blackgrass ([8]; Rate 16 g/ha): 10
- Plant response rating (0 to 100), Blackgrass ([8]; Rate 31 g/ha): 10
- Plant response rating, Chickweed ([9]; 62 g/ha): 40
- Plant response rating, Chickweed ([9]; 125 g/ha): 70
- Plant response rating (0 to 100), Chickweed ([9]; Rate 16 g/ha): 20
- Plant response rating (0 to 100), Chickweed ([9]; Rate 31 g/ha): 30
- Plant response rating, Barley ([10]; POSTEMERGENCE, Rate 50 g/ha): 4
- Plant response rating, Barley ([10]; POSTEMERGENCE, Rate 200 g/ha): 6
- Plant response rating, Barley ([10]; PREEMERGENCE, Rate 50 g/ha): 0
- Plant response rating, Barley ([10]; Rate 200 g/ha, PREEMERGENCE): 0
- Plant response rating, Soybean ([11]; POSTEMERGENCE, Rate 50 g/ha): 2
- Plant response rating, Soybean ([11]; PREEMERGENCE, Rate 50 g/ha): 0
- Plant response rating, Soybean ([11]; Rate 200 g/ha, POSTEMERGENCE): 4
- Plant response rating, Soybean ([11]; Rate 200 g/ha, PREEMERGENCE): 0
- Plant response rating, Sugar beet ([12]; POSTEMERGENCE, Rate 50 g/ha): 10
- Plant response rating, Sugar beet ([12]; PREEMERGENCE, Rate 50 g/ha): 8
- Plant response rating, Sugar beet ([12]; Rate 200 g/ha, POSTEMERGENCE): 10
- Plant response rating, Sugar beet ([12]; Rate 200 g/ha, PREEMERGENCE): 10
- Plant response rating Pigweed ([13]; 62 g/ha): 100
- Plant response rating Pigweed ([13]; 125 g/ha): 100
- Plant response rating (0 to 100), Pigweed ([13]; Rate 16 g/ha): 90
- Plant response rating (0 to 100), Pigweed ([13]; Rate 31 g/ha): 100
- Plant response rating, Rape ([14]; 62 g/ha): 60
- Plant response rating, Rape ([14]; 125 g/ha): 70
- Plant response rating (0 to 100), Rape ([14]; Rate 16 g/ha): 20
- Plant response rating (0 to 100), Rape ([14]; Rate 31 g/ha): 50
- Plant response rating, Bedstraw ([15]; POSTEMERGENCE, Rate 200 g/ha): 10
- Plant response rating, Bedstraw ([15]; PREEMERGENCE, Rate 50 g/ha): 4
- Plant response rating, Bedstraw ([15]; Rate 200 g/ha, PREEMERGENCE): 9
- Plant response rating, Cocklebur ([16]; POSTEMERGENCE, Rate 50 g/ha): 10
- Plant response rating, Cocklebur ([16]; POSTEMERGENCE, Rate 200 g/ha): 10
- Plant response rating, Cocklebur ([16]; PREEMERGENCE, Rate 50 g/ha): 0
- Plant response rating, Cocklebur ([16]; Rate 200 g/ha, PREEMERGENCE): 1
- Plant response rating, Chickweed ([17]; POSTEMERGENCE, Rate 50 g/ha): 8
- Plant response rating, Chickweed ([17]; POSTEMERGENCE, Rate 200 g/ha): 10
- Plant response rating, Chickweed ([17]; PREEMERGENCE, Rate 50 g/ha): 0
- Plant response rating, Chickweed ([17]; Rate 200 g/ha, PREEMERGENCE): 5
- Plant response rating (0 to 100), Umbrella sedge ([18]; Rate 16 g/ha): 0
- Plant response rating (0 to 100), Umbrella sedge ([18]; Rate 31 g/ha): 0
- Plant response rating Umbrella sedge ([18]; 62 g/ha): 60
- Plant response rating Umbrella sedge ([18]; 125 g/ha): 70

Reference: US6358885B1, “Substituted phenylheterocyclic herbicides” (Mississippi State University, priority 1992, dated 2002)
